According to patent publication US8163778B2 (Hoffmann-LA Roche Inc., priority 2007, dated 2012):

Target: T1, human liver FBPase (Homo sapiens, UniProt P09467)
T1 construct: made in house; host or cells: E. coli
T1 sequence (P09467 2-338 limits assumed): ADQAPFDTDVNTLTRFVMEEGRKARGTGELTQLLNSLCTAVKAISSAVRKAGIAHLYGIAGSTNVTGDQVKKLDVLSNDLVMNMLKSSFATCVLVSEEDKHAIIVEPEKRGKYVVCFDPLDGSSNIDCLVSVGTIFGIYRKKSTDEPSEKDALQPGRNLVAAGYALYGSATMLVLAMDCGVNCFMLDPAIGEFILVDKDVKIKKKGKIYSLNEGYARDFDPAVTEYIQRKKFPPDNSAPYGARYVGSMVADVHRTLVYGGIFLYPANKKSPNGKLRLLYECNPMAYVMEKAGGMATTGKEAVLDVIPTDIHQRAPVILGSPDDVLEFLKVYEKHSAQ
Experiment: FBPase assay (malachite green phosphate release)
Assay type: biochemical
Settings: recombinant human liver FBPase, 50 μM fructose-1,6-bisphosphate
Experimental: The following tests were carried out for evaluating the inhibitory activity of the compounds of the present invention against human liver FBPase (Swissprot Data base reference PO9467, entry F16P_HUMAN).
Human liver FBPase cDNA (NM_000507) was purchased from Origene Technologies, Inc, subcloned in a vector for expression in E. Coli., and sequenced. Recombinant human liver FBPase (hlFBPase) was purified according to the following protocol that uses heat denaturation similarly to that described by El-Maghrabi et al. [El-Maghrabi, M. R. et al. “Isolation of a human liver fructose-1,6-bisphosphatase cDNA and expression of the protein in Escherichia coli.” J Biol Chem 268:9466-9472, 1993.]. Briefly, E. coli cells, transiently expressing very high levels of soluble and active human liver FBPase, were suspended in 20 mM Tris-HCl pH 7.5, 1 mM EDTA, 1 mM DTT and were lysed by French press. The soluble extract was heat denatured at 65° C. for 5 min, and insoluble, denatured proteins were removed by centrifugation. The extract was then applied to a BioRad Macro-Prep High Q column equilibrated with 20 mM Tris-HCl pH 7.5, 1 mM EDTA, 1 mM DTT and the flow-through (containing FBPase activity) was collected and applied to a BioRad Macro-Prep HS column equilibrated with 20 mM HEPES pH 7.2, 1 mM DTT. A gradient of increasing NaCl concentration was then applied to the HS column and fractions were collected. Fractions containing active FBPase were pooled and further purified by size exclusion chromatography on a Sephacryl S200 column equilibrated in 20 mM Tris-HCl pH 7.5, 150 mM NaCl, 1 mM EDTA, 1 mM DTT. Purity of the enzyme preparation was >90% as assessed by Mass spectrometry.
Recombinant human liver FBPase (hlFBPase) activity was assayed through measuring the inorganic phosphate release that results from the hydrolysis of Fructose-1,6-bisphosphate by the enzyme. As described by Baykov A. A. et al. in [Baykov A. A et al., “Malachite Green procedure for orthophosphate determination and its use in alkaline phosphatase-based enzyme immunoassays”. Anal. Biochem., 171:266-270, 1988], inorganic phosphate can be readily quantified by spectrophotometry at 620 nm after complexation with ammonium molybdate/malachite green reagent. Enzymatic reaction was carried out with modifications of the procedure described by Wright S. W. et al. [Wright S. W. et al., “Anilinoquinazoline inhibitors of Fructose-1,6-bisphosphatase bind to a novel allosteric site: synthesis, in vitro characterization, and X-ray crystallography”. J. Med. Chem. 45:3865-3877, 2002]. Specifically, the reaction was carried out in 96 well plates in a final volume of 100 μl in the presence or in the absence of allosteric inhibitors. Reaction was started adding 25 ng of hlFBPase to the reaction mixture containing 50 mM HEPES-KOH buffer pH 7.2, 2 mM MgCl2, 2 mM EDTA, 1 mM DTT, 50 μM fructose-1,6-bisphosphate and 1% DMSO. After 50 minutes incubation at room temperature, the phosphate released was allowed to form a colored complex for 10 min by adding 150 μl of ammonium molybdate/malachite green reagent containing 0.03% malachite green, 0.2% ammonium molybdate, 0.05% Triton X-100 and 0.7 M H2SO4 in water that was stirred for 30 min at room temperature and filtered through 0.2 μm filter. Under these conditions, the assay was linear with time and able to detect FBPase inhibition after spectrophotometric read-out at 620 nm.

Row | SMILES | IC50
1 | Nc1cc(Br)cc(NC(=O)NS(=O)(=O)c2cccc(Cl)c2)n1 [Compound 28, N-[(6-Amino-4-bromopyridin-2-yl)carbamoyl]-3-chlorobenzenesulfonamide] | 396 nM
2 | COCCc1sc(S(=O)(=O)NC(=O)Nc2cc(OC)cc(N)n2)cc1C [Compound 30, N-[(6-Amino-4-methoxypyridin-2-yl)carbamoyl]-5-(2-methoxyethyl)-4-methylthiophene-2-sulfonamide] | 428 nM
3 | COCCc1sc(S(=O)(=O)NC(=O)Nc2cc(Br)cc(N3CCOCC3)n2)cc1C [Compound 31, N-[(4-Bromo-6-morpholin-4-ylpyridin-2-yl)carbamoyl]-5-(2-methoxyethyl)-4-methylthiophene-2-sulfonamide] | 429 nM
4 | COCCc1sc(S(=O)(=O)NC(=O)Nc2cc(C(F)(F)F)ccn2)cc1C [Compound 33, 5-(2-Methoxyethyl)-4-methyl-N-{[4-(trifluoromethyl)pyridin-2-yl]carbamoyl}thiophene-2-sulfonamide] | 1660 nM
5 | Nc1cc(Br)cc(NC(=O)NS(=O)(=O)c2ccc3c(c2)CCO3)n1 [Compound 34, N-[(6-Amino-4-bromopyridin-2-yl)carbamoyl]-2,3-dihydro-1-benzofuran-5-sulfonamide] | 481 nM
6 | Nc1cc(Br)cc(NC(=O)NS(=O)(=O)c2ccc3c(c2)OCCO3)n1 [Compound 37, N-[(6-Amino-4-bromopyridin-2-yl)carbamoyl]-2,3-dihydro-1,4-benzodioxine-6-sulfonamide] | 574 nM
7 | Cc1cccc(S(=O)(=O)NC(=O)Nc2cc(Br)cc(NCC(F)F)n2)c1 [Compound 39, N-({4-Bromo-6-[(2,2-difluoroethyl)amino]pyridin-2-yl}carbamoyl)-3-methylbenzenesulfonamide] | 610 nM
8 | CCOc1cc(NC(N)=O)nc(NC(=O)NS(=O)(=O)c2cc(C)c(CCOC)s2)c1 [Compound 40, N-{[6-(Carbamoylamino)-4-ethoxypyridin-2-yl]carbamoyl}-5-(2-methoxyethyl)-4-methylthiophene-2-sulfonamide] | 631 nM
9 | O=C(Nc1cc(Br)cc(NCC(F)F)n1)NS(=O)(=O)c1cccc(Cl)c1 [Compound 41, N-({4-Bromo-6-[(2,2-difluoroethyl)amino]pyridin-2-yl}carbamoyl)-3-chlorobenzenesulfonamide] | 696 nM
10 | COCCc1sc(S(=O)(=O)NC(=O)Nc2cc(C(F)(F)F)cc(-c3ccc(C(F)(F)F)cc3)n2)cc1C [Compound 42, 5-(2-Methoxyethyl)-4-methyl-N-({4-(trifluoromethyl)-6-[4-(trifluoromethyl)phenyl]pyridin-2-yl}carbamoyl)thiophene-2-sulfonamide] | 760 nM

Results, then the compound that gave them:

Row | IC50 | SMILES
11 | 420 nM | CNC(=O)Nc1cc(OC)cc(NC(=O)NS(=O)(=O)c2csc(COC)c2)n1 [Compound 29, 5-(Methoxymethyl)-N-({4-methoxy-6-[(methylcarbamoyl)amino]pyridin-2-yl}carbamoyl)thiophene-3-sulfonamide]
12 | 433 nM | COCCc1sc(S(=O)(=O)NC(=O)Nc2cc(SC)cc(N)n2)cc1C [Compound 32, N-{[6-Amino-4-(methylthio)pyridin-2-yl]carbamoyl}-5-(2-methoxyethyl)-4-methylthiophene-2-sulfonamide]
13 | 494 nM | CCOc1cc(NC(=O)NC)nc(NC(=O)NS(=O)(=O)c2cc(C)c(CCOC)s2)c1 [Compound 35, N-({4-Ethoxy-6-[(methylcarbamoyl)amino]pyridin-2-yl}carbamoyl)-5-(2-methoxyethyl)-4-methylthiophene-2-sulfonamide]
14 | 566 nM | Cc1cccc(S(=O)(=O)NC(=O)Nc2cc(Br)cc(N)n2)c1 [Compound 36, N-[(6-Amino-4-bromopyridin-2-yl)carbamoyl]-3-methylbenzenesulfonamide]
15 | 582 nM | CNC(=O)Nc1cc(OC)cc(NC(=O)NS(=O)(=O)c2cc(C)c(OCCOC)s2)n1 [Compound 38, 5-(2-Methoxyethoxy)-N-({4-methoxy-6-[(methylcarbamoyl)amino]pyridin-2-yl}carbamoyl)-4-methylthiophene-2-sulfonamide]
